# How the values were obtained:
# Assay type in all cases: in vivo
# [1] = tested on: rice (Oryza sativa); assay: Test B flooded paddy test plant response
# Summary of the method: (§1)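 Rice, umbrella sedge, ducksalad and barnyardgrass at 2-leaf stage; pots flooded to 3 cm, compounds applied into paddy water, depth held throughout. Greenhouse 13 to 15 days, then visual rating vs untreated controls on 0–100 scale (0 no effect, 100 complete control); dash means no test result.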
# [2] = tested on: barnyardgrass (Echinochloa crus-galli); assay: Test B flooded paddy test plant response
# Summary of the method: as §1
# [3] = tested on: ducksalad (Heteranthera limosa); assay: Test B flooded paddy test plant response
# Summary of the method: as §1
# [4] = tested on: umbrella sedge (Cyperus difformis); assay: Test B flooded paddy test plant response
# Summary of the method: as §1
# [5] = tested on: winter barley (Hordeum vulgare); assay: Test B postemergence plant response; conditions: for Barley plant response rating: 8 g ai/ha, postemergence, 0-100 scale; for Plant response rating, Barley: Postemergence
# Summary of the method: (§2)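 Test compounds were applied postemergence to plants 2 to 18 cm tall (1- to 4-leaf stage). After 13 to 15 days in a greenhouse, each species was visually compared with untreated controls and rated 0 (no effect) to 100 (complete control).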
# [6] = tested on: chickweed (Stellaria media); assay: Test B postemergence plant response; conditions: for Chickweed plant response rating: 8 g ai/ha, postemergence, 0-100 scale; for Plant response rating, Chickweed: Postemergence
# Summary of the method: as §2
# [7] = tested on: canarygrass (Phalaris minor); assay: Test B postemergence plant response; conditions: for Canarygrass plant response rating: 8 g ai/ha, postemergence, 0-100 scale; for Plant response rating, Canarygrass: Postemergence
# Summary of the method: as §2
# [8] = tested on: windgrass (Apera spica-venti); assay: Test B postemergence plant response; conditions: for Windgrass plant response rating: 8 g ai/ha, postemergence, 0-100 scale; for Plant response rating, Windgrass: Postemergence
# Summary of the method: as §2
# [9] = tested on: corn (Zea mays); assay: Test A pre-/postemergence plant response
# Summary of the method: (§3)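 Seeds sown in loam–sand blend; test chemicals in non-phytotoxic solvent with surfactant applied preemergence as directed soil spray and, concurrently, postemergence to plants 2–10 cm tall at one- to two-leaf stage. Greenhouse ~10 days, then visual injury rating vs untreated controls on 0–100 scale (0 = no effect, 100 = complete control).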
# [10] = tested on: morningglory (Ipomoea coccinea); assay: Test A pre-/postemergence plant response
# Summary of the method: as §3
# [11] = tested on: large crabgrass (Digitaria sanguinalis); assay: Test A pre-/postemergence plant response
# Summary of the method: as §3
# [12] = tested on: barnyardgrass (Echinochloa crus-galli); assay: Test A pre-/postemergence plant response
# Summary of the method: as §3
# [13] = tested on: velvetleaf (Abutilon theophrasti); assay: Test A pre-/postemergence plant response
# Summary of the method: as §3
# [14] = tested on: wheat (Triticum aestivum); assay: Test A pre-/postemergence plant response
# Summary of the method: as §3
# [15] = tested on: pigweed (Amaranthus retroflexus); assay: Test A pre-/postemergence plant response
# Summary of the method: as §3
# [16] = Flood (flooded paddy test), 62 g ai/ha, scale 0 to 100, 0 no effect, 100 complete control
# [17] = Flood (flooded paddy test), 125 g ai/ha, scale 0 to 100, 0 no effect, 100 complete control
# [18] = Flood (flooded paddy test), 250 g ai/ha, scale 0 to 100, 0 no effect, 100 complete control
# [19] = Flood, 31 g ai/ha, scale 0 to 100
# [20] = 16 g ai/ha, scale 0 to 100, 0 no effect, 100 complete control
# [21] = 31 g ai/ha, scale 0 to 100, 0 no effect, 100 complete control
# [22] = Postemergence, 125 g ai/ha, 0 to 100 scale, 0 no effect, 100 complete control
# [23] = Postemergence, 500 g ai/ha, 0 to 100 scale, 0 no effect, 100 complete control
# [24] = Preemergence, 125 g ai/ha, 0 to 100 scale (0 no effect, 100 complete control)
# [25] = Preemergence, 500 g ai/ha, 0 to 100 scale (0 no effect, 100 complete control)
# [26] = 62 g ai/ha, scale 0 to 100, 0 no effect, 100 complete control
# [27] = Postemergence, 31 g ai/ha, 0 to 100 scale (0 no effect, 100 complete control)
# [28] = Preemergence, 31 g ai/ha, 0 to 100 scale, 0 is no effect, 100 is complete control
structure (smiles),measurement,setting,value
CCc1cc(-c2ccc(Cl)c(Cl)c2)nn1-c1c(O)cnn(C)c1=O [Compound 20],"Plant response rating, Rice",[1]; [16],0
same,"Plant response rating, Rice",[1]; [17],0
same,"Plant response rating, Rice",[1]; [18],0
same,"Plant response rating, Rice",[1]; [19],0
same,"Plant response rating, Barnyardgrass",[2]; [16],0
same,"Plant response rating, Barnyardgrass",[2]; [17],0
same,"Plant response rating, Barnyardgrass",[2]; [18],0
same,"Plant response rating, Barnyardgrass",[2]; [19],0
same,"Plant response rating, Ducksalad",[3]; [16],0
same,"Plant response rating, Ducksalad",[3]; [17],0
same,"Plant response rating, Ducksalad",[3]; [18],0
same,"Plant response rating, Ducksalad",[3]; [19],0
same,"Plant response rating, Sedge, Umbrella",[4]; [16],0
same,"Plant response rating, Sedge, Umbrella",[4]; [17],0
same,"Plant response rating, Sedge, Umbrella",[4]; [18],0
same,"Plant response rating, Sedge, Umbrella",[4]; [19],0
same,Barley plant response rating,[5],0
same,"Plant response rating, Barley",[5]; [20],0
same,"Plant response rating, Barley",[5]; [21],0
same,"Plant response rating, Barley","[5]; 62 g ai/ha, scale 0 to 100",0
same,Chickweed plant response rating,[6],0
same,"Plant response rating, Chickweed","[6]; 16 g ai/ha, scale 0 to 100",0
same,"Plant response rating, Chickweed",[6]; [21],0
same,"Plant response rating, Chickweed","[6]; 62 g ai/ha, scale 0 to 100",0
same,Canarygrass plant response rating,[7],5
same,"Plant response rating, Canarygrass","[7]; 16 g ai/ha, scale 0 to 100",30
same,"Plant response rating, Canarygrass",[7]; [21],50
same,Windgrass plant response rating,[8],20
same,"Plant response rating, Windgrass","[8]; 16 g ai/ha, scale 0 to 100",70
same,"Plant response rating, Windgrass",[8]; [21],85
same,"Plant response rating, Windgrass","[8]; 62 g ai/ha, scale 0 to 100",90
same,"Plant response rating, Corn",[9]; [22],70
same,"Plant response rating, Corn",[9]; [23],90
same,"Plant response rating, Corn",[9]; [24],60
same,"Plant response rating, Corn",[9]; [25],90
same,"Plant response rating, Morningglory",[10]; [22],0
same,"Plant response rating, Morningglory",[10]; [23],0
same,"Plant response rating, Morningglory",[10]; [24],0
same,"Plant response rating, Morningglory",[10]; [25],0
same,"Plant response rating, Crabgrass, Large",[11]; [22],80
same,"Plant response rating, Crabgrass, Large",[11]; [23],100
same,"Plant response rating, Crabgrass, Large",[11]; [24],90
same,"Plant response rating, Crabgrass, Large",[11]; [25],100
same,"Plant response rating, Barnyardgrass",[12]; [22],80
same,"Plant response rating, Barnyardgrass",[12]; [23],100
same,"Plant response rating, Barnyardgrass",[12]; [24],90
same,"Plant response rating, Barnyardgrass",[12]; [25],100
same,"Plant response rating, Velvetleaf",[13]; [22],0
same,"Plant response rating, Velvetleaf",[13]; [23],0
same,"Plant response rating, Velvetleaf",[13]; [24],0
same,"Plant response rating, Velvetleaf",[13]; [25],0
same,"Plant response rating, Wheat",[14]; [22],50
same,"Plant response rating, Wheat",[14]; [23],70
same,"Plant response rating, Wheat",[14]; [24],60
same,"Plant response rating, Wheat",[14]; [25],80
same,"Plant response rating, Pigweed",[15]; [22],0
same,"Plant response rating, Pigweed",[15]; [23],0
same,"Plant response rating, Pigweed",[15]; [24],0
same,"Plant response rating, Pigweed",[15]; [25],0
Cc1cc(-c2ccc(Cl)cc2)nn1-c1c(OS(C)(=O)=O)cnn(C)c1=O [Compound 36],"Plant response rating, Rice",[1]; [16],0
same,"Plant response rating, Rice",[1]; [17],0
same,"Plant response rating, Rice",[1]; [18],0
same,"Plant response rating, Rice",[1]; [19],0
same,"Plant response rating, Barnyardgrass",[2]; [16],0
same,"Plant response rating, Barnyardgrass",[2]; [17],0
same,"Plant response rating, Barnyardgrass",[2]; [18],0
same,"Plant response rating, Barnyardgrass",[2]; [19],0
same,"Plant response rating, Ducksalad",[3]; [16],0
same,"Plant response rating, Ducksalad",[3]; [17],0
same,"Plant response rating, Ducksalad",[3]; [18],0
same,"Plant response rating, Ducksalad",[3]; [19],0
same,"Plant response rating, Sedge, Umbrella",[4]; [16],0
same,"Plant response rating, Sedge, Umbrella",[4]; [17],0
same,"Plant response rating, Sedge, Umbrella",[4]; [18],0
same,"Plant response rating, Sedge, Umbrella",[4]; [19],0
same,Barley plant response rating,[5],0
same,"Plant response rating, Barley",[5]; [20],0
same,"Plant response rating, Barley",[5]; [21],15
same,"Plant response rating, Barley",[5]; [26],15
same,Chickweed plant response rating,[6],0
same,"Plant response rating, Chickweed","[6]; 16 g ai/ha, scale 0 to 100",0
same,"Plant response rating, Chickweed",[6]; [21],0
same,"Plant response rating, Chickweed",[6]; [26],0
same,Canarygrass plant response rating,[7],0
same,"Plant response rating, Canarygrass","[7]; 16 g ai/ha, scale 0 to 100",0
same,"Plant response rating, Canarygrass",[7]; [21],10
same,"Plant response rating, Canarygrass",[7]; [26],10
same,Windgrass plant response rating,[8],0
same,"Plant response rating, Windgrass","[8]; 16 g ai/ha, scale 0 to 100",0
same,"Plant response rating, Windgrass",[8]; [26],65
same,"Plant response rating, Corn",[9]; [27],50
same,"Plant response rating, Corn",[9]; [22],80
same,"Plant response rating, Corn",[9]; [28],50
same,"Plant response rating, Corn",[9]; [24],80
same,"Plant response rating, Morningglory",[10]; [22],0
same,"Plant response rating, Morningglory",[10]; [28],0
same,"Plant response rating, Morningglory",[10]; [24],0
same,"Plant response rating, Crabgrass, Large",[11]; [27],80
same,"Plant response rating, Crabgrass, Large",[11]; [22],90
same,"Plant response rating, Crabgrass, Large",[11]; [28],70
same,"Plant response rating, Crabgrass, Large",[11]; [24],100
same,"Plant response rating, Barnyardgrass",[12]; [27],80
same,"Plant response rating, Barnyardgrass",[12]; [22],100
same,"Plant response rating, Barnyardgrass",[12]; [28],90
same,"Plant response rating, Barnyardgrass",[12]; [24],100
same,"Plant response rating, Velvetleaf",[13]; [27],0
same,"Plant response rating, Velvetleaf",[13]; [22],0
same,"Plant response rating, Velvetleaf",[13]; [28],0
same,"Plant response rating, Velvetleaf",[13]; [24],0
same,"Plant response rating, Wheat",[14]; [27],0
same,"Plant response rating, Wheat",[14]; [22],60
same,"Plant response rating, Wheat",[14]; [28],50
same,"Plant response rating, Wheat",[14]; [24],90
same,"Plant response rating, Pigweed",[15]; [27],0
same,"Plant response rating, Pigweed",[15]; [22],10
same,"Plant response rating, Pigweed",[15]; [28],0
same,"Plant response rating, Pigweed",[15]; [24],30

# From patent US20100267561A1, “HERBICIDAL PYRIDAZINONE DERIVATIVES” (priority 2007, published 2010)
